Results taken from BindingDB's records for patent US20250214932 (Praxis Precision Medicines, 2025).

Target: Voltage-dependent T-type calcium channel subunit alpha-1G (Homo sapiens, UniProt O43497)
Assay: In Vitro Cav3.1 Single Point and IC50 (VDB) Data
Experimental: The compound plate was created at 2× concentrated in the extracellular solution. The compound was diluted to 1:2 when added to the recording well. The amount of DMSO in the extracellular solution was held constant at the level used for the highest tested concentration. For the voltage clamp experiments on Cav3.1, data were sampled at 10 KHz. After establishment of the seal and the passage in the whole cell configuration, the cells were held at −120 mV. Cav3.1 current was evoked using a 100 ms step to −20 mV (to measure resting state block), followed by a 1600 ms step to −65 mV and a second 100 ms step to −20 mV (to measure voltage dependent block). The voltage protocol was applied every 15 seconds in the absence and in the presence of the compounds under investigation. […] Current amplitude (pA) was measured in the peak 1 and 2. The average of last 3 sweeps of each liquid period (vehicle, compound under investigation, full block) was calculated. Nickel-sensitive current was used to calculate the % of inhibition in the presence of the compound under investigation.

Voltage-dependent T-type calcium channel subunit alpha-1G, sequence (O43497 whole entry): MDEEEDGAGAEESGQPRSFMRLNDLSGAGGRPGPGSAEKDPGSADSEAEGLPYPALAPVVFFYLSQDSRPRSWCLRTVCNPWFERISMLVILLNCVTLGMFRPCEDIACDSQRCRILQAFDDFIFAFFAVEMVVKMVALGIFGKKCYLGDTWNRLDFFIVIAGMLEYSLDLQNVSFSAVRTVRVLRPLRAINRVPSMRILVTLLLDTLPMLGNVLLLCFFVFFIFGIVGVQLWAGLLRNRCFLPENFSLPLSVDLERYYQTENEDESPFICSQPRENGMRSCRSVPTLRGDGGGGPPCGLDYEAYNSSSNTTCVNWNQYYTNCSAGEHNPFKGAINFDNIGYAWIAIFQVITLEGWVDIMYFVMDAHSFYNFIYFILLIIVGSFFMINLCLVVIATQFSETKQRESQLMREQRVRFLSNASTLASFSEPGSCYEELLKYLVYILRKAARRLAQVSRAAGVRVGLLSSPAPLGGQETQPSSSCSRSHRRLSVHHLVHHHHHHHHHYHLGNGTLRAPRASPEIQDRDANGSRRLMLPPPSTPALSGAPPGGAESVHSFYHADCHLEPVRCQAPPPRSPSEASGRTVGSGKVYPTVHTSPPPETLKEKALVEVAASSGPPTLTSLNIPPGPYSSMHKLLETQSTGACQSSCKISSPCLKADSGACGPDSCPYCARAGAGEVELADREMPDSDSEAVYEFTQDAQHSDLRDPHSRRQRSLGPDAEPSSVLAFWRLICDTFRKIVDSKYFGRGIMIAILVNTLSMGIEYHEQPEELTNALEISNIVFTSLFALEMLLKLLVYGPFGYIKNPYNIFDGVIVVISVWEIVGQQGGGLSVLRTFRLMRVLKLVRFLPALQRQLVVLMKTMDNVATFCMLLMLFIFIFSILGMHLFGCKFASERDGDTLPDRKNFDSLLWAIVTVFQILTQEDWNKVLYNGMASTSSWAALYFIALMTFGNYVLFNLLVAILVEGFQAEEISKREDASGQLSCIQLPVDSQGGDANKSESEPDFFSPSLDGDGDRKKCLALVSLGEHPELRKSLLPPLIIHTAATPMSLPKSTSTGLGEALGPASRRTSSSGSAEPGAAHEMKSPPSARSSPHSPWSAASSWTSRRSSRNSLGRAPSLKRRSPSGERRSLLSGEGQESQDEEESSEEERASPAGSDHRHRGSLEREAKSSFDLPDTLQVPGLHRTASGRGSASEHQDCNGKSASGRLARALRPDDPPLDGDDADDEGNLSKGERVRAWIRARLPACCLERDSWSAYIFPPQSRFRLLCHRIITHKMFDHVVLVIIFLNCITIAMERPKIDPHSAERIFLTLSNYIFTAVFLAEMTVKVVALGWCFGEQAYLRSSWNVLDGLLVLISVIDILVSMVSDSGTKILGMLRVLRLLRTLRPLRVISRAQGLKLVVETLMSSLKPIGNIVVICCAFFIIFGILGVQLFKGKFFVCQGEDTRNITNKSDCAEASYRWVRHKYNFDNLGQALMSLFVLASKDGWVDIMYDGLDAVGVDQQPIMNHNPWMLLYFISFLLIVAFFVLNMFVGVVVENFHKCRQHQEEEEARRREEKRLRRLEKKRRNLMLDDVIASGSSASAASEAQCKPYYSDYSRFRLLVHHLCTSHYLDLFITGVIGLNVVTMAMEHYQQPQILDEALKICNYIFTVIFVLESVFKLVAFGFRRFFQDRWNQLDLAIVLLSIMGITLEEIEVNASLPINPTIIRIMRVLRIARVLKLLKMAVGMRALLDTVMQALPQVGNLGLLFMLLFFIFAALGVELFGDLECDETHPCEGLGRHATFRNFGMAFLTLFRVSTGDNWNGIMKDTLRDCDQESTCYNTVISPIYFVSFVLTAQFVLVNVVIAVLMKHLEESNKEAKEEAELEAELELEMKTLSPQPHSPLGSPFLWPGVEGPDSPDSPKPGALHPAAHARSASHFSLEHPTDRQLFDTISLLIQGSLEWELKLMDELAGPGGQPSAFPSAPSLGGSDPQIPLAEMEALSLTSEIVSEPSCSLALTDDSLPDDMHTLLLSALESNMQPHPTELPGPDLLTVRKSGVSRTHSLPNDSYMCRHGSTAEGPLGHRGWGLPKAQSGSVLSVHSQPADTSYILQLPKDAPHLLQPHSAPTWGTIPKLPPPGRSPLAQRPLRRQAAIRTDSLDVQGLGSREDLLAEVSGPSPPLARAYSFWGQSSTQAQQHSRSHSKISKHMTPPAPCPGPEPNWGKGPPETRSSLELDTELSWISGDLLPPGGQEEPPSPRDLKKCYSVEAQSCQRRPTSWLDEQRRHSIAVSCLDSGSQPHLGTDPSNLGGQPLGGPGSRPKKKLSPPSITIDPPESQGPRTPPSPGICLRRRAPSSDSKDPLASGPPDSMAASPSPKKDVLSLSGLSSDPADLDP

Row | IC50 [nM] | Compound
1 | 218 | COc1cc(F)cc(NC(=O)C2CCC3(CC2)CN(CC(=O)NC(C)(C)C)C3)c1 [US20250214932, Example 46]
2 | 196 | Cc1cc(F)cc(NC(=O)C2CCC3(CC2)CN(CC(=O)NC(C)(C)C)C3)c1 [US20250214932, Example 48]
3 | 261 | O=C(Nc1cc(F)cc(C(F)F)c1)C1CCC2(CC1)CN(CCNC(=O)C1(C(F)(F)F)CCC1)C2 [US20250214932, Example 52]
4 | 170 | O=C(Nc1cc(F)cc(Cl)c1)C1CCC2(CC1)CN(CC(O)C1CCCCC1)C2 (centres undefined) [US20250214932, Example 68]
5 | < 78.2 | O=C(CN1CC2(CCC(C(=O)Nc3cc(F)cc(C(F)F)c3)CC2)C1)NC1(C(F)(F)F)CC1 [US20250214932, Example 79]
6 | 163 | O=C(CN1CC2(CCC(C(=O)Nc3cc(F)cc(C(F)F)c3)CC2)C1)NC1(C(F)(F)F)CCC1 [US20250214932, Example 85]
7 | 407 | O=C(Nc1cc(F)cc(C(F)F)c1)C1CCC2(CC1)CN(CC(F)(F)C1CCCC1)C2 [US20250214932, Example 100]
8 | 1360 | COc1cc(Cl)cc(NC(=O)C2CCC3(CC2)CN(CC2(C#N)CC2)C3)c1 [US20250214932, Example 129]
9 | 188 | O=C(NC12CC3CC(CC(C3)C1)C2)C1CCC2(CC1)CN(CC1(O)CCC(F)(F)CC1)C2 [US20250214932, Example 153]
